Source: ChEMBL document CHEMBL1914363, “Identification of a naturally occurring quinazolin-4(3H)-one firefly luciferase inhibitor” (J Nat Prod, 2011)
Calls of active or inactive are those of the source. The calls are words filed in the database; no cut-off is given here.

Assays:
[1] = target: T1, Luciferin 4-monooxygenase (Luciola lateralis, UniProt Q01158); assay: Inhibition of firefly luciferase by ATPlite assay in absence of AMPK; parameters: species or system Aquatica lateralis
T1 sequence (Q01158 whole entry): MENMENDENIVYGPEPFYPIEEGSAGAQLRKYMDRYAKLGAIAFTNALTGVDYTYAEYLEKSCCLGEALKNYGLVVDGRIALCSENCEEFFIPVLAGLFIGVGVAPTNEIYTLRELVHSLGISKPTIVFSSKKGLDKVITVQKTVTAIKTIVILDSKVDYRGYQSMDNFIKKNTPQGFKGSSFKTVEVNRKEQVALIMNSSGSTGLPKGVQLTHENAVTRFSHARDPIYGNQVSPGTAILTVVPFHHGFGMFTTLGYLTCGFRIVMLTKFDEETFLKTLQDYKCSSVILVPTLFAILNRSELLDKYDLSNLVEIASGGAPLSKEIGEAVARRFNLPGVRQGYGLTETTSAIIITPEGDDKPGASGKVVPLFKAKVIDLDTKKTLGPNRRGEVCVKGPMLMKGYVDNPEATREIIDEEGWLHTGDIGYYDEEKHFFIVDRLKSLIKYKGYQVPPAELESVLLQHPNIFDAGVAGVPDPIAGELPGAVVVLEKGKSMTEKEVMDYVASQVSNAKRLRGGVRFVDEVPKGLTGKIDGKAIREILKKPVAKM

[2] = target: T2, Luciferin 4-monooxygenase (Luciola lateralis) (UniProt Q01158); assay: Inhibition of firefly luciferase by ATPlite assay in presence of AMPK; settings: Aquatica lateralis
T2 sequence (whole entry): T1 sequence (Q01158 whole entry)

EC50 [1]: 730 nM
inhibition [2]: Active
SMILES: CNc1ccc(-c2nc3ccccc3c(=O)[nH]2)cc1
